The text below walks through data of publication PMC7358525, “Characterization of PF-6142, a Novel, Non-Catecholamine Dopamine Receptor D1 Agonist, in Murine and Nonhuman Primate Models of Dopaminergic Activation” (Frontiers in Pharmacology, 2020).

For data set [1], the system named is mouse locomotor activity. The data set can be described thus: Mouse locomotor activity (LMA). The format is in vivo. The procedure: Locomotor activity data were measured by an automated infrared photo-beam system in sound attenuating chambers controlled by Versamax® software, provided by Accuscan Instruments Inc. (Columbus, Ohio), which quantified beam breaks similar to the methods used previously ([Xu et al., 2000]). To test D1 receptor selectivity in a pharmacologic model, C57BL/6J mice were habituated to the apparatus for 90 min, followed by pretreatment with vehicle or SCH-23390 (0.01, 0.032, 0.1 0.32, s.c.) and returned to the apparatus for 30 min. […] Data were compared against the vehicle group using a repeated measures one-way ANOVA with a Dunnett’s post-test. To test D1 receptor selectivity in a genetic model, DRD1a WT and knockout mice (D1 KO) were habituated to the apparatus for 90 min, pretreated with vehicle or SCH-23390 (0.032 mg/kg, s.c.) and returned to the apparatus for 30 min. […] Data were compared within genotype using a two-way ANOVA with a Dunnett’s post-hoc test versus vehicle treated group.

The subject of data set [2] is EEG oscillation power. Put plainly: Rat quantitative electroencephalography, freely moving. The format is in vivo. The following applies: first 4 h. The text has this: (§1) Model 4ET telemetry device components (Data Sciences International, St Paul, MN, USA) were bilaterally placed in subcutaneous pockets on the dorsal flank of adult male Sprague-Dawley rats (200–400 grams). Two pairs of leads were implanted superficially to burr holes drilled over the frontal cortex (stainless steel screws, Plastics One, Roanoke, VA at coordinates: A-P = +1.5 mm, M-L = 1.5 mm) and parietal cortex (coordinates: A-P = −3.7 mm, M-L = −2.2 mm), and the cerebellum bilaterally to be used as ground and reference for electroencephalographic (EEG) recordings. A stainless-steel wire (Plastics One, Roanoke, VA) was implanted into the neck muscle to monitor electromyogram (EMG). All recordings were performed inside the home cages of animals using RPC-2 telemetry receivers (Data Sciences International, St. Paul, MN) at a sampling rate of 500 Hz for data acquisition. Baseline data, while on vehicle, were obtained for 24 h prior to compound administration. PF-6142 (1.0 or 5.6 mg/kg, s.c.) was administered acutely following the baseline day.
(§2) Raw EEG traces were analyzed using custom scripts in MATLAB (The Mathworks, Natick, MA, version 7.8 (R2009a)) to evaluate spectral changes between treatment groups. Raw EEG data were read into the MATLAB software, segmented to match that of the polysomnography (PSG) data (see below) and fast Fourier transforms (FFTs) were performed. Only data collected on the parietal lead were the subject of statistical analyses. PSG analysis was applied to all EEG/EMG data and utilized an in-house algorithm developed in LabView (National Instruments, Austin TX) as previously described ([Harvey et al., 2013]).
Relative power data in each band aggregated over 2 h-long time bins, while on drug, were normalized to baseline levels in corresponding time bins relative to dosing. For statistical analysis the R software was used. The effects of two within factors, dose and time, on cumulative time spent in three stages, awake, REM, and NREM sleep were assessed using generalized linear mixed model. The model specification explicitly accounted for a crossover design with repeated measures by introducing auxiliary factors, day, treatment sequence, and day by time product. To account for correlations within subjects, we employed a first order autoregressive scheme, which assumes that correlations decay exponentially with the lag between the measurements. The model was fitted using the method of restricted maximum likelihood. Significant findings were followed by least significant difference tests for pairwise differences across doses and across doses at fixed times for treatment and treatment by time factors, respectively. Tukey-Kramer procedure was used to adjust for multiple hypothesis testing. For all statistical tests, p < 0.05 was considered significant. The same fixed factors and type of statistical model were used to explain cumulative power within EEG power bands; the power was log transformed before the analysis.

Data set [3] has as its system time spent awake, in SWS and REM sleep. The data set can be described thus: Rat polysomnography. The format is in vivo. The following applies: 5.6 mg/kg s.c., first 4 h.
Text: as §1, §2
Relative power data in each band aggregated over 2 h-long time bins, while on drug, were normalized to baseline levels in corresponding time bins relative to dosing. For statistical analysis the R software was used. The effects of two within factors, dose and time, on cumulative time spent in three stages, awake, REM, and NREM sleep were assessed using generalized linear mixed model. […]

Data set [4] relates to ketamine-induced working memory deficits. Put plainly: Ketamine-disrupted radial arm maze (RAM). The format is in vivo, rat. Conditions: 0.01, 0.056, 0.178, 0.56 mg/kg s.c., 90 min before ketamine 10 mg/kg. The text has this:
Two cohorts of adult male Long-Evans rats (N=30 each) were trained in a spatial working memory task on an eight-arm RAM, (Pathfinder Maze System, Lafayette Instrument Co., Lafayette, IN), using a procedure adapted from [Ward et al. (1990)] and described in detail in [Strick et al. (2011)]. Briefly, rats were food-restricted to provide motivation to perform the RAM task. The task requires that the animals enter each arm to retrieve a reinforcement food pellets, using spatial cues in the room to remember which arms of the maze they have previously entered. Rats were individually placed on the maze and allowed to navigate until all eight arms were entered and the pellets were consumed or until 30 choices were made, or until 5 min had elapsed. Entry into an arm previously entered was counted as an error. […] Training continued until all animals had reached the training criterion, defined as two or fewer errors on two consecutive days. […] Performance on the maze was evaluated 30 min later by an observer that was blinded to treatments.
The R 3.0.1 statistical software was used to compare the error rate data. The effects of treatment and the interaction on the error rate were assessed using a one-way mixed model ANOVA using generalized least squares method from lme4 library. […]

A short description of data set [5]: PK, brain exposure and plasma/brain tissue binding studies. The data set is classed as in vivo. Conditions: data not presented. The procedure:
Across the set of experiments, PK was either collected from satellite animals or in separate, dedicated studies. In addition to plasma PK, exposures were obtained in brain tissue for rat and mouse, and plasma protein binding and brain tissue binding were measured. Using the measured exposures, partitioning, and binding parameters, and the
Exposures increased in a generally dose proportional manner across most of the doses used in the pharmacology studies, and inter animal variability was typically low. Exposures were obtained in brain tissues for rat and mouse, and plasma protein binding and brain tissue binding were measured.

[6] abbreviates: significant only at 5.6 mg/kg s.c.

With `Cc1cc(Oc2nccc3occc23)ccc1-c1c(C)ncc2nccn12` [PF-6142], the “horizontal activity, five consecutive days of dosing” value in data set [1] (1.78 mg/kg daily) is on record as “did not significantly increase horizontal activity”. Also, the “horizontal activity, five consecutive days of dosing” value in data set [1] (3.2 mg/kg s.c. daily (p=0.0311 day 4, p=0.0309 day 5)) was “only increased activity significantly on days 4 and 5”. Also, the “locomotor activity, five consecutive days of dosing” value in data set [1] (10 mg/kg s.c. daily, CD-1 mice) was “increased locomotor activity”. For the same molecule, the locomotor activity result in data set [1] (D1 KO mice, 10 mg/kg s.c. (p=0.6731)) is on record as “did not show hyperactivity”. In data set [1] (WT mice, 10 mg/kg s.c.), the locomotor activity entry was “increased activity in the WT mice”. The “horizontal activity (beam breaks, 2 h)” value in data set [1] (acute 0.32-10 mg/kg s.c., significant at 10 mg/kg (p<0.0001)) was “dose-dependently increased horizontal activity”. Further, the “delta oscillation power vs vehicle” value in data set [2] (5.6 mg/kg s.c.) was “significant delta power decrease”. For the same molecule, the “power in other studied frequency bands (theta, alpha)” value in data set [2] (1.0 and 5.6 mg/kg s.c.) was “not found to change significantly”. Moreover, in data set [2] (setting [6]), the beta oscillation power result is “significant increase”, the gamma oscillation power entry is “significant increase” and the “total power in the EEG signal” value is “decreased significantly”. Also, in data set [3], the “decrease of time spent in slow-wave sleep relative to vehicle” value is 88.1%; the “difference in fraction of REM sleep, vehicle vs high dose group” value is reported as 88.2%; the “increase of time spent awake” value worked out at 246.9%. Besides, the “ketamine-induced error rate in RAM” value in data set [4] is “decreased the ketamine-induced error rate at all, except for the lowest dose administered”. Besides, the brain penetration result in data set [5] (brain tissues of rat and mouse) is “fully brain penetrant”. In addition, the “unbound concentrations between the brain and plasma compartments” value in data set [5] (rat and mouse) was “approaching unity”.
